This note sets out measurements from patent US11572590B2, “Methods for evaluating tumor cell spheroids using 3D microfluidic cell culture device” (Dana-Farber Cancer Institute, Inc., priority 2017, dated 2023).

Molecules are shown by their SMILES.

This test relates to MC38 MDOTS. The test can be described thus: Live/dead (AO/PI) imaging of MC38 MDOTS in 3D microfluidic culture. The settings on record: Cmpd1 (1 μM) + αPD-1; did not reach significance vs single-agent PD-1. It counts as cell-based, murine. The protocol:
Fresh tumor specimens (murine and human patients) were received in media (DMEM) on ice and minced in a 10 cm dish (on ice) using sterile forceps and scalpel. Minced tumor was resuspended in DMEM ([…], […] sodium pyruvate, 1:100 penicillin-streptomycin) (Corning CellGro, Manassas, Va.) +10% FBS (Gemini Bio-Products, West Sacramento, Calif.), 100 U/mL collagenase type IV (Life Technologies, Carlsbad, Calif.), and 15 mM HEPES (Life Technologies, Carlsbad, Calif.), except for CT26 tumors that were prepared in RPMI. Samples were pelleted and resuspended in 10-20 mL media. Red blood cells were removed from visibly bloody samples using RBC Lysis Buffer (Boston Bio-Products, Ashland, Mass.). […]
Dual labeling was performed by loading microfluidic device with Nexcelom ViaStain™ AO/PI Staining Solution (Nexcelom, CS2-0106). Following incubation with the dyes (20 minutes at room temperature in the dark), images were captured on a Nikon Eclipse 80i fluorescence microscope equipped with Z-stack (Prior) and CoolSNAP CCD camera (Roper Scientific). […] Live and dead cell quantitation was performed by measuring total cell area of each dye. […]

On to `N#Cc1cc(-c2ncnc(Nc3ccc(N4CCN(C5COC5)CC4)cc3)n2)ccc1OC1CCOCC1` [Compound 1, 5-(4-((4-(4-(oxetan-3-yl)piperazin-1-yl)phenyl)amino)-1,3,5-triazin-2-yl)-2-((tetrahydro-2H-pyran-4-yl)oxy)benzonitrile], for which the “ex vivo killing of MC38 MDOTS, combination treatment” value is “enhanced ex vivo killing”.
